# Source: patent publication US20180186807A1, “COMPOUNDS AND USES THEREOF FOR THE MODULATION OF HEMOGLOBIN” (Global Blood Therapeutics, Inc., priority 2013, published 2018)
compound,measurement,value
"O=Cc1c(O)cccc1OCC(=O)N(C1CCOCC1)C1CCOCC1 [GBT001203, 2-(2-formyl-3-hydroxyphenoxy)-N,N-bis(tetrahydro-2H-pyran-4-yl)acetamide]",melting point,272 to 275 °C
